{"source": "patent US20250276069A1", "about": "“HETEROBIFUNCTIONAL COMPOSITIONS FOR TARGETED PROTEIN DEGRADATION AND METHODS FOR THEIR USE” (THE SCRIPPS RESEARCH INSTITUTE, priority 2021, published 2025)", "test_system": "HCC1806 cells", "assay": "TMT MS quantitative proteomics of live cells treated with FragTAC probes (HCC1806)", "format": "cell-based, Homo Sapiens", "conditions": "TMT proteomics, targets with 2 unique peptides or more and depleted 2-fold or more relative to DMSO control (P value <0.05)", "protocol": "Mammalian cell culture: MDA-MB-231 cells (ATCC) were maintained in DMEM supplemented with 10% (v/v) fetal bovine serum (FBS), 1% (v/v) penicillin/streptomycin, and 2 mM glutamine. HCC1806 cells (ATCC) were maintained in RPMI supplemented with 10% (v/v) fetal bovine serum (FBS), 1% (v/v) penicillin/streptomycin, and 2 mM glutamine. All cell lines were grown at 37° C. in a humidified 5% CO2 atmosphere.\nTreatment of Live Cells with FragTAC Probes: Separate 6 cm (for gel-based analyses) or 10 cm (for MS-based analyses) dishes of MDA-MB-231 cells or HCC1806 cells were grown to 80-95% confluency with DMEM media and RPMI media respectively. The growth medium was aspirated, and the cells were washed with Dulbecco's phosphate buffered saline (DPBS). The cells were incubated with serum-free media containing fragment probes (200 μM) or control probes (200 μM) for 6 hours at 37° C. under a 5% CO2 atmosphere. The cultures were scraped, washed with cold DPBS, and collected into 15 mL centrifuge tubes, then transferred to 1.5 mL Eppendorf tubes. The cell suspensions were centrifuged (1,400 g, 3 min) and the pellets were stored at −80° C. until the next stage of processing.\nSample preparation for TMT MS Quantitative Proteomics: For treatment of cell lysates, cells were collected, cell pellets were resuspended in 100 μL DPBS containing 1× Halt protease inhibitor cocktail, and lysed by sonication (15 ms on, 40 ms off, 15% amplitude, 1 s total). Protein concentrations were normalized (2 mg/mL in 100 μL with cold DPBS) using the Lowry Protein Assay (Pierce). Urea (48 mg) was weighed for each sample in 2 mL LoBind Eppendorf tubes and cell lysates (100 μL=200 μg) were added (final urea concentration=8 M). Pellets were resuspended in a freshly prepared 1:1 solution (50 μL) TCEP (200 mM in DPBS) and K2CO3 (600 mM in DPBS) and incubated (30 min, 37° C.) while shaking. After reaction, a solution of freshly prepared iodoacetamide (70 μL, 400 mM in DPBS) was added and incubated for 30 min at room temperature while protected from light. After reaction, 1.8 mL of cold 3:1:2 MeOH/CHCl3/H2O solution was added to each tube, and the samples were centrifuged (10,000×g, 10 min, 4° C.), forming a disc. The supernatant was carefully removed, MeOH (600 μL) was added, samples were centrifuged as previously described and the supernatant was removed. Cell pellets were resuspended in TEAB (160 μL, 100 mM, pH 8.5) and sonicated as described previously. Endoproteinase LysC (20 μL, ½ vial, 10 μg dissolved in 220 μL of 100 mM TEAB pH 8.5) was added to each and incubated at 37° C. for 2 h with shaking. Sequencing-grade modified porcine trypsin (20 μL, 1 vial, 20 μg dissolved in 220 μL of 100 mM TEAB pH 8.5), a solution of Protease Max (2 μL, 1% (w/v) in 100 mM TEAB pH 8.5) and a solution of CaCl2) (2 μL, 100 mM) were added to the samples and incubated at 37° C. overnight (14 h) with shaking. The digest was separated by centrifugation (12,000×g, 10 min, 4° C.). Peptide concentration was determined using Pierce Quantitative Fluorometric Peptide Assay Kit (Thermo Fisher Scientific, 23290) according to manufacturer's instructions. MS-grade acetonitrile (12.5 μL) was added to each and samples were labeled with respective TMT 10 plex isotope (8 μL, 20 μg/μL) for 1 h with occasional vortexing at RT. To quench, hydroxylamine (3 μL, 5% v/v) was added to each sample, vortexed, and incubated for 15 min at RT. Formic acid (5 μL) was added to each tube to acidify and the samples were dried under vacuum centrifugation. The samples were combined by redissolving the contents of one tube in a solution of trifluoroacetic acid (TFA, 400 μL, 0.1% in water) and transferred into each sample until all samples were redissolved. The stepwise process was repeated with formic acid (Buffer A, 200 μL, 0.1% in water) for a final volume of 600 μL. […]", "note": "Entries after “also recorded” stand apart in the source; their conditions may differ."}
{"smiles": "Cc1ncsc1-c1ccc(CNC(=O)[C@@H]2C[C@@H](O)CN2C(=O)[C@@H](NC(=O)CCOCCOCCC(=O)NCCc2ccc3c(c2)NC(=O)CCC3)C(C)(C)C)cc1", "note": "[LPC034, (2S,4R)-1-((S)-2-(tert-butyl)-4,13-dioxo-16-(2-oxo-2,3,4,5-tetrahydro-1H-benzo[b]azepin-8-yl)-7,10-dioxa-3,14-diazahexadecanoyl)-4-hydroxy-N-(4-(4-methylthiazol-5-yl)benzyl)pyrrolidine-2-carboxamide]", "values": [{"measurement": "Downregulated proteins targeted by FragTAC probes (protein listed for the probe code)", "setting": "cell line not given", "result": "KRT10 and KRT2"}]}
{"smiles": "Cc1ncsc1-c1ccc(CNC(=O)[C@@H]2C[C@@H](O)CN2C(=O)[C@@H](NC(=O)CCOCCOCCC(=O)N[C@H]2CCCc3ccccc32)C(C)(C)C)cc1", "note": "[LPC049, (2S,4R)-1-((S)-3,3-dimethyl-2-(3-(2-(3-oxo-3-(((S)-1,2,3,4-tetrahydronaphthalen-1-yl)amino)propoxy)ethoxy)propanamido)butanoyl)-4-hydroxy-N-(4-(4-methylthiazol-5-yl)benzyl)pyrrolidine-2-carboxamide]", "values": [{"measurement": "Proteins targeted (downregulated) by FragTAC probe", "setting": "value = downregulated protein", "result": "TMBIM6; also recorded: TOR4A"}]}
